Measured values published in US7745173B2, “Histone deacetylase and methods of use thereof” (The J. David Gladstone Institutes, priority 2001, dated 2010).

Key:
[1] = tested on: Nur77; assay: Nur77 mRNA expression by northern blot in DO11.10 T-cells; assay type: cell-based, mouse; details: DO11.10 cells, 400 nM, various times
Procedure: DO11.10 T cell hybridomas were grown at 37° C., in RPMI 1640 medium supplemented with 10% FBS, 2 mM glutamine and 50 U/ml of streptomycin/penicillin. Transfections were performed by the DEAE-dextran-chlororquine method. The DNA concentration was kept constant in the different samples by using the corresponding empty vector. In some cases, 16 hours after transfection cells were treated with PMA (10 ng/ml) and ionomycin (0.5 μM) for 4 hours and then harvested for reporter assay. All transfections were done in triplicate and are presented as the result of at least 3 independent experiments. Luciferase reporter assays were done with the dual luciferase reporter assay system (Promega) using an EF1α promoter-driven renilla expression vector as an internal control.
The tissue-expression of HDAC7 was analyzed as using a multiple human tissue Northern blot and RNA Master blots obtained from Clontech. Expression of Nur77 upon TSA treatment was assessed as followed. DO11.10 cells were treated with 400 nM of TSA (Sigma) for various times. […] Autoradiographs were analyzed with a FUJIX BAS1000 phosphorus imaging system (Fuji, Tokyo, Japan). Quantification analysis of autoradiographs was performed on a Macintosh computer using the public domain NIH Image 1.62 program (developed at the U.S. National Institute of Health).

[2] = tested on: CRM1-mediated nuclear export of HDAC7-FLAG; assay: Subcellular localization of HDAC7-FLAG in transfected cells by indirect immunofluorescence; assay type: cell-based
Procedure: Immunofluorescence and Confocal Microscopy—Cells were plated onto glass coverslips and transfected the following day with Lipofectamine 2000 (Life Technologies) according to the manufacturer's instructions. After incubation overnight, transfected cells were fixed with 1% paraformaldehyde, permeabilized with phosphate buffered saline (PBS), pH 7.2 and 0.5% Triton X-100 and then incubated for 60 min at room temperature with the appropriate antibodies at dilutions typically between 1:100 and 1:1000. Cells were mounted onto glass slides in PBS/90% glycerol containing 1 mM paraphenylenediamine as an antifade reagent. Confocal microscopy was performed with a Zeiss LSM510 laser scanning confocal microscope at 488 nm (Alexa 488-conjugated secondary antibodies) and 543 nm (Cy3-conjugated secondary antibodies). The pinhole aperture was set to 1.0 airy unit for each channel. Band-pass filters and sequential scanning of individual fluorescent probes were used to eliminate cross talk between channels. Images were collected as 12-bit images, and each channel was independently rescaled from 0 to 255 (8-bit) for final presentation. […]

[3] = tested on: thymocytes; assay: Apoptosis in thymocytes expressing dominant negative HDAC7 constructs, commercially available kit; assay type: cell-based; details: construct expressed in thymocytes
Procedure: Constructs encoding dominant negative mutants of HDAC7 were generated. These constructs direct expression of either the amino terminal domain (amino acids 1-437) or the carboxyl terminal domain (amino acids 438-915) of HDAC7 in mammalian cells. These construct were individually introduced into thymocytes. Apoptosis was measured using a commercially available kit.

Row | Molecule | Apoptosis in thymocytes [3] | also measured
1 | CC(/C=C/C(=O)NO)=C\[C@@H](C)C(=O)c1ccc(N(C)C)cc1 [trichostatin A] |  | Nur77 mRNA expression [1]: induced in a time dependent manner
2 | CCC(=C/[C@H](C)C/C=C/C(C)=C/[C@@H](C)C(=O)[C@@H](C)[C@H](O)[C@@H](C)C/C(C)=C/C(=O)O)/C=C/[C@@H]1OC(=O)C=C[C@@H]1C [leptomycin B] |  | Subcellular localization of HDAC7-FLAG [2]: nuclear localization of HDAC7-FLAG in most transfected cells
3 | amino terminal domain (amino acids 1-437): dominant negative mutant of HDAC7: amino terminal domain, amino acids 1-437, expressed from a construct (protein, UniProt Q8WUI4 1-437, looked up, fragment) MDLRVGQRPPVEPPPEPTLLALQRPQRLHHHLFLAGLQQQRSVEPMRLSMDTPMPELQVGPQEQELRQLLHKDKSKRSAVASSVVKQKLAEVILKKQQAALERTVHPNSPGIPYRTLEPLETEGATRSMLSSFLPPVPSLPSDPPEHFPLRKTVSEPNLKLRYKPKKSLERRKNPLLRKESAPPSLRRRPAETLGDSSPSSSSTPASGCSSPNDSEHGPNPILGSEALLGQRLRLQETSVAPFALPTVSLLPAITLGLPAPARADSDRRTHPTLGPRGPILGSPHTPLFLPHGLEPEAGGTLPSRLQPILLLDPSGSHAPLLTVPGLGPLPFHFAQSLMTTERLSGSGLHWPLSRTRSEPLPPSATAPPPPGPMQPRLEQLKTHVQVIKRSAKPSEKPRLRQIPSAEDLETDGGGPGQVVDDGLEHRELGHGQPEAR | strongly induces apoptosis | 
4 | carboxyl terminal domain (amino acids 438-915): dominant negative mutant of HDAC7: carboxyl terminal domain, amino acids 438-915, expressed from a construct (protein, UniProt Q8WUI4 438-915, looked up, fragment) GPAPLQQHPQVLLWEQQRLAGRLPRGSTGDTVLLPLAQGGHRPLSRAQSSPAAPASLSAPEPASQARVLSSSETPARTLPFTTGLIYDSVMLKHQCSCGDNSRHPEHAGRIQSIWSRLQERGLRSQCECLRGRKASLEELQSVHSERHVLLYGTNPLSRLKLDNGKLAGLLAQRMFVMLPCGGVGVDTDTIWNELHSSNAARWAAGSVTDLAFKVASRELKNGFAVVRPPGHHADHSTAMGFCFFNSVAIACRQLQQQSKASKILIVDWDVHHGNGTQQTFYQDPSVLYISLHRHDDGNFFPGSGAVDEVGAGSGEGFNVNVAWAGGLDPPMGDPEYLAAFRIVVMPIAREFSPDLVLVSAGFDAAEGHPAPLGGYHVSAKCFGYMTQQLMNLAGGAVVLALEGGHDLTAICDASEACVAALLGNRVDPLSEEGWKQKPNLNAIRSLEAVIRVHSKYWGCMQRLASCPDSWVPRVPGA | strongly induces apoptosis | 
